Results from patent US12662465B2, “EGFR inhibitors” (Blueprint Medicines Corporation, priority 2021, dated 2026).
Read-outs that look alike come from different tables or passages of the source.

Experiments:
EGFR (d746-750) = target: T1, EGFR (d746-750) (Homo sapiens, UniProt P00533, DEL746-750); experiment: Biochemical EGFR inhibition assay (Caliper mobility shift), EGFR (d746-750); conditions: read-out: Enz EGFR_Exon19-del746-750 IC50
T1 construct: purchased SignalChem E10-122JG

EGFR L858R = target: T2, EGFR L858R (Homo sapiens, UniProt P00533, L858R); experiment: Biochemical EGFR inhibition assay (Caliper mobility shift), EGFR L858R; conditions: read-out: Enz EGFR_L858R IC50
T2 construct: purchased SignalChem E10-122BG

[1] = target: intracellular phosphorylation of EGFR (Tyr1068) in PC-9 cells (Ex19Del) (Homo sapiens, UniProt P00533, DEL746-750); experiment: PC-9 pEGFR AlphaLISA assay; assay type: cell-based; conditions: 4 hours compound incubation, read-out: Ext pEGFR_PC-9 Ex19Del IC50
[2] = 1.0 mM ATP or ATP Km, room temperature (25° C.)

T2 sequence (P00533 25-1210 L858R): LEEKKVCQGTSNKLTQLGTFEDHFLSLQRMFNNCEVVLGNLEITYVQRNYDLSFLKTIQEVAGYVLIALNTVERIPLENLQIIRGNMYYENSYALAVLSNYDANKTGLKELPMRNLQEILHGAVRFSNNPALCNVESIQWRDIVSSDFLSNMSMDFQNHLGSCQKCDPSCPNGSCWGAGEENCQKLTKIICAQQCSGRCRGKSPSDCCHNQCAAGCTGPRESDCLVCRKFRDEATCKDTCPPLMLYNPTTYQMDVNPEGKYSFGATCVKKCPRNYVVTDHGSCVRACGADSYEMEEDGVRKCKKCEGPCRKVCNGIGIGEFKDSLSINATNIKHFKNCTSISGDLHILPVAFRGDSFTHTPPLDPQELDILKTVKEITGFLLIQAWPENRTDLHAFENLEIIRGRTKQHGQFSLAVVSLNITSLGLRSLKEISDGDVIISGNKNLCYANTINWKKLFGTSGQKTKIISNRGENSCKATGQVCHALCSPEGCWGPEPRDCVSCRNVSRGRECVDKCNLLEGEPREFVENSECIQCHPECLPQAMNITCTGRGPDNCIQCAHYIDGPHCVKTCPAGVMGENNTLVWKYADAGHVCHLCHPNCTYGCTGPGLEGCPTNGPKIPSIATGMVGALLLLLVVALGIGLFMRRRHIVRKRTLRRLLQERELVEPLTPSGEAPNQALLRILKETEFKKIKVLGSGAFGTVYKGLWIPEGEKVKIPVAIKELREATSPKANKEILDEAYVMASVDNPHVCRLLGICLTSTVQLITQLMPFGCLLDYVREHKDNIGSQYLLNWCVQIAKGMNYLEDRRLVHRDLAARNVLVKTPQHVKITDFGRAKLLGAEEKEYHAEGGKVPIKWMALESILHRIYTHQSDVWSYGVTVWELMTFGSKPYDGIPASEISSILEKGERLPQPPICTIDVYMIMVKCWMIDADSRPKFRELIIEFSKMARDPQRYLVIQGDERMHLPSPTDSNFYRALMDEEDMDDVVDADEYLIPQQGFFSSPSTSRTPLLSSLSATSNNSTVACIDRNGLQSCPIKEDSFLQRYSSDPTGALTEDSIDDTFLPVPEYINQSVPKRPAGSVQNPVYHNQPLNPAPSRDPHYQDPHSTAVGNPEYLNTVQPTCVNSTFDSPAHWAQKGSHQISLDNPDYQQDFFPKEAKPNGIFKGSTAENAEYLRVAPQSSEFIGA
Chain of intracellular phosphorylation of EGFR (Tyr1068) in PC-9 cells (Ex19Del) (P00533 with tags, fused parts or gaps DEL746-750): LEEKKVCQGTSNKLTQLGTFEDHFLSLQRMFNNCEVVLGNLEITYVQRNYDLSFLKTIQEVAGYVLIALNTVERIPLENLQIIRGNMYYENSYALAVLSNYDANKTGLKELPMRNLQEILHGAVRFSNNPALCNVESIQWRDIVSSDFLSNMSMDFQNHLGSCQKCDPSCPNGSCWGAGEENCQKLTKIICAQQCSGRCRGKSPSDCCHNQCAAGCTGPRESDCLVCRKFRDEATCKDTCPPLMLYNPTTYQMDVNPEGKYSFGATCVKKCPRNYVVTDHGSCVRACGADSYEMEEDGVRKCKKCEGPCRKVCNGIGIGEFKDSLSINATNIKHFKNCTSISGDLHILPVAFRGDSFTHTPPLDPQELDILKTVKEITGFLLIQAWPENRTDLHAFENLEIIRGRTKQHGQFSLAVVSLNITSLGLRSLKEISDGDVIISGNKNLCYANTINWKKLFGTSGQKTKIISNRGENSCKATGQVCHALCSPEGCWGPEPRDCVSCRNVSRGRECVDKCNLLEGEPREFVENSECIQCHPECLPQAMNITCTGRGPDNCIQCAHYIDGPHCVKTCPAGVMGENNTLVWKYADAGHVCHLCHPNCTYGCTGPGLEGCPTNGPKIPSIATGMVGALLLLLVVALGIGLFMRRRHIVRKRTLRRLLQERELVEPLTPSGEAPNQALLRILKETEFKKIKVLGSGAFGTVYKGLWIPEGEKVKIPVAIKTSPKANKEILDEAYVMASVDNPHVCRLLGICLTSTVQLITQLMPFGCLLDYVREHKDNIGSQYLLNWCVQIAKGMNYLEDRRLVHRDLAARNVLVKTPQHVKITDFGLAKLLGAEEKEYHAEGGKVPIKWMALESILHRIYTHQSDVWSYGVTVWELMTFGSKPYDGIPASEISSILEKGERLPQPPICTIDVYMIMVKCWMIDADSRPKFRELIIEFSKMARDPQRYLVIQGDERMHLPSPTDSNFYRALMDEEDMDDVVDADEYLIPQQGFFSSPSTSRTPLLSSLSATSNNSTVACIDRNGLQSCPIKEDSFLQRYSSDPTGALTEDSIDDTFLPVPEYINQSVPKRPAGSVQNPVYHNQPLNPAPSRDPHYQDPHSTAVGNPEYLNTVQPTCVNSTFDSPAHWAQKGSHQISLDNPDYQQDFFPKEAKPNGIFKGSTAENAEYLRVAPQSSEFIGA
T1 sequence (P00533 with tags, fused parts or gaps DEL746-750 limits assumed): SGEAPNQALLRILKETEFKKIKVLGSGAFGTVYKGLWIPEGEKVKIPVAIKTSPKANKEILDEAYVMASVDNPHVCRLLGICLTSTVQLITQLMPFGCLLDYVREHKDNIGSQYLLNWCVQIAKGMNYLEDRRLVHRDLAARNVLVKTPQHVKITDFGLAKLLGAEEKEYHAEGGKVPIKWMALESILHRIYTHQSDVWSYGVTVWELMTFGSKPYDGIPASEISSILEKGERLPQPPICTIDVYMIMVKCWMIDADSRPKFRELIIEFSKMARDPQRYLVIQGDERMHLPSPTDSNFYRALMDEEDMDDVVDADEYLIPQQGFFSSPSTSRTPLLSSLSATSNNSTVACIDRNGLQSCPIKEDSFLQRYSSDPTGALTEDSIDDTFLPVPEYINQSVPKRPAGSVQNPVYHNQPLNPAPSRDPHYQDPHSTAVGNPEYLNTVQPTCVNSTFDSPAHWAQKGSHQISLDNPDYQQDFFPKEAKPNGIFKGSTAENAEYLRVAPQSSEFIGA

IC50 [1] [nM] | IC50 (EGFR (d746-750)) [nM] | IC50 (EGFR L858R) [nM] | SMILES | IC50 (EGFR (d746-750); [2]) [nM] | IC50 (EGFR L858R; [2]) [nM]
≤ 10 | – | – | C[C@H](Oc1cc(-c2cnn(C)c2)cc2ncnc(Nc3ccc4ncccc4c3F)c12)C(=O)N(C)C (single isomer, unassigned) [Example 137, (S)-2-((4-((5-fluoroquinolin-6-yl)amino)-7-(1-methyl-1H-pyrazol-4-yl)quinazolin-5-yl)oxy)-N,N-dimethylpropanamide or (R)-2-((4-((5-fluoroquinolin-6-yl)amino)-7-(1-methyl-1H-pyrazol-4-yl)quinazolin-5-yl)oxy)-N,N-dimethylpropanamide] | < 10 | < 10
10.1 to 50 | < 10 | 10.1 to 50 | C[C@H](CN(C)C)Oc1cc(N2CCC3(COC3)C2)cc2ncnc(Nc3ccc4ncccc4c3F)c12 [Example 74, (R)-5-((1-(dimethylamino)propan-2-yl)oxy)-N-(5-fluoroquinolin-6-yl)-7-(2-oxa-6-azaspiro[3.4]octan-6-yl)quinazolin-4-amine] | – | –
≤ 10 | – | – | C[C@@H](Oc1cc(-c2cnn([C@@H](C)CO)c2)cc2ncnc(Nc3ccc4ncccc4c3F)c12)C1COC1 (single isomer, unassigned) [Example 121, (S)-2-(4-(4-((5-fluoroquinolin-6-yl)amino)-5-((R)-1-(oxetan-3-yl)ethoxy)quinazolin-7-yl)-1H-pyrazol-1-yl)propan-1-ol or (R)-2-(4-(4-((5-fluoroquinolin-6-yl)amino)-5-((R)-1-(oxetan-3-yl)ethoxy)quinazolin-7-yl)-1H-pyrazol-1-yl)propan-1-ol] | < 10 | < 10
10.1 to 50 | < 10 | 10.1 to 50 | C[C@H](CN(C)C)Oc1cc(-c2cnn(C)c2)cc2ncnc(Nc3ccc4c(ccc[n+]4[O-])c3F)c12 (single isomer, unassigned) [Example 129] | – | –
≤ 10 | < 10 | 10.1 to 50 | CC(CN(C)C)Oc1cc(N2CC3CC(C2)O3)cc2ncnc(Nc3ccc4ncccc4c3)c12 (racemic) [Example 66, 7-(6-oxa-3-azabicyclo[3.1.1]heptan-3-yl)-5-(((R)-1-(dimethylamino)propan-2-yl)oxy)-N-(quinolin-6-yl)quinazolin-4-amine and 7-(6-oxa-3-azabicyclo[3.1.1]heptan-3-yl)-5-(((S)-1-(dimethylamino)propan-2-yl)oxy)-N-(quinolin-6-yl)quinazolin-4-amine] | – | –
≤ 10 | < 10 | < 10 | Cc1cnn(-c2cc(O[C@H](C)CN(C)C)c3c(Nc4ccc5ncccc5c4F)ncnc3c2)c1 [Example 83, (R)-5-((1-(dimethylamino)propan-2-yl)oxy)-N-(5-fluoroquinolin-6-yl)-7-(4-methyl-1H-pyrazol-1-yl)quinazolin-4-amine] | – | –
10.1 to 50 | < 10 | < 10 | C[C@H](CN(C)C)Oc1cc(-c2cnn(C)c2)cc2c1c(Nc1ccc3ncccc3c1F)nc[n+]2[O-] (single isomer, unassigned) [Example 127] | – | –
10.1 to 50 | < 10 | 10.1 to 50 | Cc1ccc2cc(Nc3ncnc4cc(-c5cnn(C)c5)cc(O[C@H](C)CN(C)C)c34)ccc2n1 [Example 105, (R)-5-((1-(dimethylamino)propan-2-yl)oxy)-7-(1-methyl-1H-pyrazol-4-yl)-N-(2-methylquinolin-6-yl)quinazolin-4-amine] | – | –
10.1 to 50 | < 10 | 10.1 to 50 | C[C@@H](Oc1cc(N2CCOC(C)(C)C2)cc2ncnc(Nc3ccc4ncccc4c3F)c12)C1COC1 [Example 60, (R)-7-(2,2-dimethylmorpholino)-N-(5-fluoroquinolin-6-yl)-5-(1-(oxetan-3-yl)ethoxy)quinazolin-4-amine] | – | –
≤ 10 | < 10 | < 10 | [2H]c1ccc2cc(Nc3ncnc4cc(-c5cnn(C)c5)cc(O[C@H](C)CN(C)C)c34)ccc2n1 [Example 156, (R)-5-((1-(dimethylamino)propan-2-yl)oxy)-7-(1-methyl-1H-pyrazol-4-yl)-N-(quinolin-6-yl-2-d)quinazolin-4-amine] | – | –
≤ 10 | < 10 | < 10 | C[C@H](CN(C)C)Oc1cc(N2CC3(CCS3(=O)=O)C2)cc2ncnc(Nc3ccc4ncccc4c3F)c12 [Example 97, (R)-6-(5-((1-(dimethylamino)propan-2-yl)oxy)-4-((5-fluoroquinolin-6-yl)amino)quinazolin-7-yl)-1-thia-6-azaspiro[3.3]heptane 1,1-dioxide] | – | –
≤ 10 | < 10 | < 10 | C[C@H](CN(C)C)Oc1cc(-c2cnn(C)c2)cc2ncnc(Nc3cnc4ccccc4c3)c12 [Example 14, (R)-5-((1-(dimethylamino)propan-2-yl)oxy)-7-(1-methyl-1H-pyrazol-4-yl)-N-(quinolin-3-yl)quinazolin-4-amine] | – | –
10.1 to 50 | < 10 | 10.1 to 50 | C[C@H](CN(C)C)Oc1cc(-c2cnn(C)c2)cc2ncnc(Nc3ccc4ncc(F)cc4c3F)c12 [Example 104, (R)—N-(3,5-difluoroquinolin-6-yl)-5-((1-(dimethylamino)propan-2-yl)oxy)-7-(1-methyl-1H-pyrazol-4-yl)quinazolin-4-amine] | – | –
≤ 10 | < 10 | < 10 | C[C@H](CN(C)C)Oc1cc(-c2cn[nH]c2)cc2ncnc(Nc3ccc4ncccc4c3F)c12 [Example 49, (R)-5-((1-(dimethylamino)propan-2-yl)oxy)-N-(5-fluoroquinolin-6-yl)-7-(1H-pyrazol-4-yl)quinazolin-4-amine] | – | –
≤ 10 | < 10 | < 10 | C[C@H](CO)Oc1cc(-c2cnn(C)c2)cc2ncnc(Nc3ccc4ncccc4c3F)c12 [Example 135, (R)-2-((4-((5-fluoroquinolin-6-yl)amino)-7-(1-methyl-1H-pyrazol-4-yl)quinazolin-5-yl)oxy)propan-1-ol] | – | –
> 50.1 | > 50.1 | > 50.1 | C[C@H](Oc1cc(-c2cnn(C)c2)cc2ncnc(Nc3ccc4ncccc4c3F)c12)[C@@H]1COCCN1 [Example 157, N-(5-fluoroquinolin-6-yl)-7-(1-methyl-1H-pyrazol-4-yl)-5-((S)-1-((S)-morpholin-3-yl)ethoxy)quinazolin-4-amine] | – | –
10.1 to 50 | < 10 | < 10 | C[C@H](CN(C)C)Oc1cc(N2CC3(CNC3)C2)cc2ncnc(Nc3ccc4ncccc4c3F)c12 [Example 152, (R)-5-((1-(dimethylamino)propan-2-yl)oxy)-N-(5-fluoroquinolin-6-yl)-7-(2,6-diazaspiro[3.3]heptan-2-yl)quinazolin-4-amine] | – | –

SMILES | IC50 [1] [nM] | IC50 (EGFR (d746-750)) [nM] | IC50 (EGFR L858R) [nM] | IC50 (EGFR (d746-750); [2]) [nM] | IC50 (EGFR L858R; [2]) [nM]
CN(C)C[C@H](Oc1cc(-c2cnn(C)c2)cc2ncnc(Nc3ccc4ncccc4c3F)c12)C(F)F (single isomer, unassigned) [Example 37, (S)-5-((3-(dimethylamino)-1,1-difluoropropan-2-yl)oxy)-N-(5-fluoroquinolin-6-yl)-7-(1-methyl-1H-pyrazol-4-yl)quinazolin-4-amine or (R)-5-((3-(dimethylamino)-1,1-difluoropropan-2-yl)oxy)-N-(5-fluoroquinolin-6-yl)-7-(1-methyl-1H-pyrazol-4-yl)quinazolin-4-amine] | ≤ 10 | – | – | < 10 | < 10
C[C@H](Oc1cc(-c2cnn(C)c2)cc2ncnc(Nc3ccc4ncccc4c3F)c12)[C@@H]1CCCN1C (single isomer, unassigned) [Example 146] | ≤ 10 | – | – | < 10 | < 10
